From patent US10064858B2, “Methods and compositions for treating bacterial infections with iron chelators” (THE UNITED STATES OF AMERICA, AS REPRESENTED BY THE …, priority 2011, dated 2018)
“Also recorded” adds a separate entry of the source. Like-named read-outs stand apart in the source and are kept apart here.

Key:
E. coli O157:H7 = test: Time-kill assay, Apo6619 with Rifampin; assay type: cell-based; conditions: 1.5×MIC Apo6619 in combination with 0.75×MIC Rifampin; 0, 5 and 24 hours
Description: Reductions in colony forming units (CFU)/mL were determined over time (time-kill assay) after exposure to VK28 and deferiprone (DFP), the two iron chelators that performed best in MIC assays when compared to controls. To better represent the iron content found in the human body, MIC and time-kill assays were also determined in minimal media and tissue culture media. Time-Kill assays were performed as previously described in G. P. Neupane et al., “In vitro time-kill activities of ciprofloxacin alone and in combination with the iron chelator deferasirox against Vibrio vulnificus,” European Journal of Clinical Microbiology and Infectious Diseases, 407-410 (2010); and R. L. White, et al., “Comparison of Three Different In Vitro Methods of Detecting synergy: Time-Kill, Checkerboard, and E test,” Journal of Antimicrobial Agents and Chemotherapy, 1914-1918 (1996). Initial inocula, for example 1×10^6 CFU/mL or 1×10^7 CFU/mL were challenged with iron chelator with and/or without an antibiotic. […] Time-kill results were analyzed by determining the change in log 10 numbers of CFU/ml at 0, 6, and 24 h, compared to counts at 0 h. […]
In this example, time-kill assays were performed as described in Example 9 using Apo6619 as the iron chelator in combination with Rifampin against E. coli O157:H7. […] Time-kill results were analyzed by determining the change in log 10 numbers of CFU/mL at 0, 5 and 24 hours.

[1] = test system: A. baumannii strain AB19606; test: Growth (OD600) with chelator, Rifampin or both; assay type: cell-based; conditions: 1.5×MIC Apo6619 in combination with ¾×MIC Rifampicin
Description: A. baumannii strain AB19606 was grown in CAMHB and challenged with 1.5×MIC compound 4 (Var) or 1.5×MIC Triapine (Tri) with or without 0.75×MIC Rifampin (Rif). Growth was estimated by absorbance at 600 nm (y-axis) at 0 or 24 hours.

[2] = test system: AB5075, a stain of A. baumannii (Ab); test: Development of rifampin resistance over 7 days (OD600); assay type: cell-based; conditions: ApoL1 in combination with rifampin; 7 days
Description: Development of antibiotic-resistant strains is an ongoing problem in the treatment of bacterial infections. In some embodiments, the present technology provides methods and compositions for reducing, inhibiting or preventing formation of antibiotic-resistant bacterial strains. In some embodiments, the iron chelator of the present technology is administered to a patient as a prophylactic before antibiotic treatment or during antibiotic treatment. In some embodiments, the iron chelator is added concurrently with an antibiotic.
Cultures of AB5075, a stain of A. baumannii (Ab), was cultured in the presence of Rifampin alone, the iron chelator ApoL1 alone or Rifampin combination with ApoL1 for 7 days.

S. aureus = test: MIC in RPMI1640 media (Table 2); assay type: cell-based; conditions: Staphylococcus aureus
Description: Individual MICs were determined following the microdilution method recommended by CLSI in cationic-adjusted Mueller-Hinton Broth (CAMHB), or M9 media. […] Tests were performed in triplicate. MIC of iron chelators were determined for noscomial ESKAPE pathogens.
This media is closer to the iron levels in the human body. MICs are in ug/mL.

[3] = rat; systemically/intravenously; cited from earlier work
[4] = test system: MR Staphylococcus aureus (MRSA); test: Growth (OD600) with VK28 in M9 media with magnesium and calcium; assay type: cell-based; conditions: M9 with 2 mM MgSO4 and 1.35 mM CaCl2; 24 hours
Description: In this example, strains of MR Staphylococcus aureus (MRSA), Acinetobacter baumannii (Acinetobacter), Escherichia coli (E. coli), and Pseudomonas aeruginosa (Pseudomonas) were grown in M9 media in the presence of 2 mM MgSO4 and 1.35 mM CaCl2 for 24 hours in the presence or absence of 0 μg/ml, 50 μg/ml, 100 μg/ml, or 200 μg/ml of VK28. The OD600 was measured at 24 hour and the results are shown in the bar graph of FIG. 21.

[5] = Maximum systemic dose without adverse side-effects, extrapolated; conditions: human; systemic delivery; based on mouse and rat results
Description: The iron chelator is employed in an amount effective for the treatment and/or prevention of bacterial infection. The effective dosage seen in vitro is up to 2 mM based on molarity or up to 1 mg/mL. 2 mM or 1 mg/mL is an extremely high dosage for translating into in vivo. Previous experiments by Varinel Inc. have shown toxicity with VK28 at 30 mg/kg in a mouse or 70 mg/kg in a rat when delivered systemically/intravenously. […] Higher doses are suitable for topical administration. The iron chelator can present in an amount that is up to about 10% by weight, alternatively up to about 20% by weight of the topical composition. In some embodiments, the topical composition can comprise about 0.1% to about 20% of at least one iron chelator, alternatively about 1% to about 20%, alternatively about 5% to about 20%, alternatively about 5% to about 10%, and include, but are not limited to, for example, about 1%, about 2%, about 3%, about 4%, about 5%, about 6%, about 7%, about 8%, about 9%, about 10%, about 12%, about 15%, about 20%, and includes percentages and ranges there between and in increments of about 0.1%, about 0.25%, about 0.5%, about 1% and the like. Determination of an effective amount of VK28, or derivative thereof, to employ is well within the skill of one having ordinary skill in the art having knowledge of the teachings set forth herein.

AB5711 = test: Effect of VK28 on the activity of antibiotics (OD600); assay type: cell-based, A. baumannii; conditions: 50 μM VK28; 30 antibiotics
Description: In some aspects of the present invention, one or more iron chelators (for example Compound 4, VK28, or its analogs or derivatives, or Apo6619) may be used in a composition or method for treating a bacterial infection with one or more antibiotics. […] Methods and compositions comprising one or more iron chelators with one or more of each of the foregoing antibiotics are hereby disclosed.
In this example, culture of AB5711 was grown overnight in LB media at 37° C. and diluted 1:100 into Media A. Cells were allowed to grow for 4 hours at 37 in 96-well plates and were then treated with antibiotics with or without 50 μM VK28. Cells were then allowed to shake for an additional 20 hours, and OD600 measurements were taken.

[6] = test system: Tetracycline-resistant A. baumannii; test: Growth (OD600) with VK28, tetracycline or both; assay type: cell-based
Text: Growth was estimated by absorbance at 600 nm at 24 hr. (y-axis).

In the case of `CNC(=O)c1c(O)c(=O)cc(C)n1C1CC1` [Apo6619, 1-cyclopropyl-3-hydroxy-6-methyl-4-oxo-1,4-dihydro-pyridine-2-carboxylic acid methylamide], the time kill curves (E. coli O157:H7) was “combinational effect” and the “growth (absorbance at 600 nm) at 24 hour” value [1] was “synergistic effect in inhibiting growth of AB19606”.

With `Cc1c(O)c(=O)ccn1C` [ApoL1, 3-hydroxy-1,2-dimethyl-4(1H)-pyridone] the “growth of rifampin-resistant strains” value [2] was “inhibits growth of an antibiotic resistant Ab strain over 7 days; also recorded: inhibition of rifampin-resistant strains of Ab over the 7 days”.

For `OCCN1CCN(Cc2ccc(O)c3ncccc23)CC1` [VK28, 5-(4-(2-hydroxyethyl)piperazin-1-ylmethyl)-8-hydroxyquinoline], the MIC (S. aureus; ATCC25923, ATCC 25923, read-out: MIC of Iron Chelators) is given as 32 µg/mL, the MIC (S. aureus; ATCC 43300 (MRSA), read-out: MIC of Iron Chelators) is given as 16 µg/mL and the dose showing toxicity [3] is given as 70 mg/kg. For the same compound, the “inhibition of growth (OD600)” value [4] was “inhibition of growth of a number of strains of bacteria is not reduced in the presence of magnesium and calcium”, the “maximum dose without adverse side-effects” value [5] was “approximately 60 mg/kg” and the “inhibition of the activity of antibiotics by VK28” value (AB5711) was “only inhibited the activity of one antibiotic, namely thiamphenicol; also recorded: not shown to inhibit the activity of the antibiotics with the exception of Thiaphenicol”. For the same compound, the “reduction of bacteria (absorbance at 600 nm at 24 hr)” value ([6]; 400 μM Vk28 in combination with 16 ug/mL tetracycline) was “the reduction in bacteria was greater than the added reductions from separate administration of tetracycline and VK28” and the “reduction of bacteria (absorbance at 600 nm at 24 hr)” value ([6]; single agent: 400 μM Vk28 or 16 ug/mL tetracycline, low-iron M9) was “significant reduction in bacteria”.
